Consider five compounds from US20250361231A1, “FUSED RING COMPOUNDS WITH SULFUR-CONTAINING SUBSTITUENTS, PREPARATION METHODS, INSECTICIDE COMPOSITIONS, AND APPLICATION” (priority 2022, published 2025).

What all share (assay type): in vivo
One assay concerns Nilaparvata lugens. As to the kind of experiment: Activity against Nilaparvata lugens, sprayed leaf discs, adults. The following applies: for mortality at 100 ppm: Nilaparvata lugens, foliar, 144 h, test rate 100 ppm, 6 days after incubation; for effect: application rate 45 ppm. As to the method: Cotton leaf discs were placed on agar in 24-well microtiter plates and sprayed with agueous test solutions prepared from 10,000 ppm DMSO stock solutions. After drying the leaf discs were infested with adult Nilaparvata lugens. The samples were checked for mortality 6 days after incubation.

The next assay relates to Plutella xylostella. As to the kind of experiment: Activity against Plutella xylostella, artificial diet in 24-well plates, L2 larvae. The following applies: for percent effect (mortality or growth inhibition) at 100 ppm: Plutella xylostella, 120 h, application rate 100 ppm, 5 days after infestation, read-out: effect in at least one of the two categories (mortality or growth inhibition); for effect: application rate 4 ppm. The protocol: (§1) 24-well microtiter plates with artificial diet were treated with agueous test solutions prepared from 10,000 ppm DMSO stock solutions by pipetting. After drying, the plates were infested with L2 larvae (10 to 15 per well). The samples were assessed for mortality and growth inhibition in comparison to untreated samples 5 days after infestation.

In a further assay the test system is Aphis craccivora Koch. As to the kind of experiment: Activity against Aphis craccivora Koch, pea seedling roots in test solution. The following applies: for mortality at 100 ppm: Aphis craccivora, 144 h, test rate 100 ppm, 6 days after placing seedlings into test solutions; for effect: application rate 4 ppm. As to the method: (§2) Roots of pea seedlings infested with an aphid population of mixed ages were placed directly into agueous test solutions prepared from […] stock solutions. The samples were assessed for mortality 6 days after placing seedlings into test solutions.

The test system of the next assay is Myzus persicae. Kind of assay: Activity against Myzus persicae (green peach aphid), pea seedling roots in test solution. The following applies: 144 h, test rate 100 ppm, 6 days after placing seedlings into test solutions. As to the method:
(§3) This test case is used to illustrate the insecticidal activity inhibition (%) of compounds with the structure shown in formula (I) (dosage of 100 ppm).
as §2

In another assay the test system is Leucania separate. Kind of assay: Activity against Leucania separate, sprayed maize sprouts, L2 larvae. The following applies: 96 h; application rate 100 ppm; 4 days after infestation; read-out: effect in at least one of the two categories (mortality or growth inhibition). The protocol: as §3
Maize sprouts placed onto an agar layer in 24-well microtiter plates were treated with agueous test solutions prepared from 10,000 ppm DMSO stock solutions by spraying. After drying, the plates were infested with L2 larvae (6 to 10 per well). The samples were assessed for mortality and growth inhibition in comparison to untreated samples 4 days after infestation.

The test system of another assay is Chilo suppressalis. Kind of assay: Activity against Chilo suppressalis, soaked rice seedlings, L2 larvae. The following applies: application rate 5 ppm, after 96 hours, read-out: effect (mortality rates). As to the method:
Take 5-6 rice seedlings, each 3-4 cm in height, soak them thoroughly in the prepared solution, After drying, the plates were infested with L2 larvae (10 per well). Keep them in an observation room for rearing and observation. Use 0.1% warm water as a blank control. Incubate them in an observation room at 25 to 27° C. After 96 hours, assess the samples based on mortality rates

The test system of another assay is Laphygma exigua. As to the kind of experiment: Activity against Laphygma exigua, artificial diet in 24-well plates, L2 larvae. The following applies: application rate 4 ppm. As to the method:
as §1

Each structure is given as a SMILES string.

What is called mortality is the percentage killed.

In the case of `CCS(=O)(=O)c1cc2nc(C3CC3)n(C)c2nc1-c1nc2cc(C(F)(F)F)cnc2n1C` [Compound I-1], the mortality at 100 ppm in the assay on Nilaparvata lugens, in the assay on Aphis craccivora Koch and with Myzus persicae was at least 90% each time. Besides, the percent effect (mortality or growth inhibition) at 100 ppm in the assay on Plutella xylostella and with Leucania separate was at least 90% throughout. In addition, the effect in the assay on Aphis craccivora Koch was determined as 100%.

For `CCS(=O)(=O)c1cc2nc(C)n(C)c2nc1-c1nc2cc(C(F)(F)F)cnc2n1C` [Compound I-2], the mortality at 100 ppm in the assay with Nilaparvata lugens, in the assay with Aphis craccivora Koch and with Myzus persicae was at least 90% in each case. Further, the percent effect (mortality or growth inhibition) at 100 ppm in the assay on Plutella xylostella and in the assay on Leucania separate was at least 90% in each case.

For `CCS(=O)(=O)c1cc2nc(C3CC3)sc2nc1-c1nc2cc(C(F)(F)F)cnc2n1C` [Compound I-73], the mortality at 100 ppm with Nilaparvata lugens, in the assay with Aphis craccivora Koch and in the assay with Myzus persicae was at least 90% in each case. The effect with Nilaparvata lugens came to 95%; in the assay with Plutella xylostella it was 100%; with Aphis craccivora Koch it was 100%; in the assay on Laphygma exigua, 100%. For the same compound, the mortality at 5 ppm in the assay on Chilo suppressalis is 100%. The percent effect (mortality or growth inhibition) at 100 ppm in the assay on Plutella xylostella and in the assay with Leucania separate was at least 90% each time.

With `CCS(=O)(=O)c1cc2nc(C(F)(F)F)sc2nc1-c1nc2cc(C(F)(F)F)cnc2n1C` [Compound I-100], the effect with Nilaparvata lugens was 95%; with Aphis craccivora Koch it was 100%.

`CCS(=O)(=O)c1cc2sc(C3CC3)nc2nc1-c1nc2cc(C(F)(F)F)cnc2n1C` [Compound I-109]: the mortality at 100 ppm in the assay on Nilaparvata lugens, in the assay with Aphis craccivora Koch and in the assay with Myzus persicae was at least 90% each time. Moreover, the effect worked out at 95% with Nilaparvata lugens, 100% in the assay on Plutella xylostella, 100% in the assay on Aphis craccivora Koch and 100% with Laphygma exigua. The mortality at 5 ppm in the assay on Chilo suppressalis is 100%. Moreover, the percent effect (mortality or growth inhibition) at 100 ppm with Plutella xylostella and with Leucania separate was at least 90% each time.
